Laboratory results: PMC8121805, “Discovery of first-in-class inhibitors of ASH1L histone methyltransferase with anti-leukemic activity” (Nature Communications, 2021)
Values joined by “and” are separate entries in the source; they are usually repeats but may differ in a detail not shown here. Identical values can stand only once.

How the values were obtained:
Format in all cases: cell-based, human
[1] = system: MV4;11 cells; assay: Flow cytometry of CD11B expression (differentiation); settings: for MV4;11 % CD11B+ cells: 7 days
Description: (§1) In addition, 1 × 10^5 cells per sample were stained with Zombie Aqua™ dye (1:100 dilution) for 15 min using the Zombie Aqua™ Fixable Viability Kit (Zombie Aqua™ Fixable Viability Kit, Biolegend®) […] and then for 30 min with an anti-CD11B-PE antibody (982606, ICRF44, Biolegend®) or anti-CD11B-Pacific Blue (101224, BD BioLegend) antibody at 1:50 dilution, according to the No-wash Sequential Staining Protocol described by the manufacturer (BioLegend, Zombie Aqua Fixable Viability Kit). Cells were washed twice with 500 µL PBS containing 1% FBS and resuspended in 200 µL PBS with 1% FBS.

[2] = system: KOPN8 cells; assay: as above; settings: 7 days
Description: as §1

[3] = system: KOPN8 cells; assay: Annexin V apoptosis assay (flow cytometry); settings: 7 days
[4] = system: K562 cells; assay: MTT cell viability assay
Description: (§2) Human leukemia cells K562, MV4;11 and RS4;11 (purchased from ATCC) and KOPN8, MOLM13 (purchased from DSMZ) were cultured in RPMI 1640 (Invitrogen) supplemented with 10% heat inactivated (h.i.) FBS and 1% penicillin/streptomycin (Invitrogen). SET2 cells (purchased from DSMZ) were cultured in RPMI 1640 supplemented with 20% h.i. FBS and 1% penicillin/streptomycin. Cells were plated at 1 × 10^5 to 2 × 10^5 cells/mL depending on cell line and treated with 0.25% DMSO or varying concentrations of compounds and incubated at 37 °C, 5% CO2 incubator for 7 days. Media was changed on day 3 or 4 and compounds were resupplied. […] Cell suspensions (100 μL) were transferred to the 96-well plates for each sample in quadruplicate at the time of media change. At day 7, 10 µL of MTT reagent (M6494, Molecular Probes™) was added to each well of the 96 well plate and incubated at 37 °C for 4 h. The formazan was then solubilized by adding 100 µL acidified 10% SDS solution and incubated at 37 °C overnight. Plates were read for absorbance at 570 nm using a PHERAstar BMG microplate reader. The experiments were performed two times in quadruplicates with calculation of mean and SD for each condition. Data were analyzed in Prism 8.0.0 to obtain GI50 values.
(§3) Supplementary Figure 7. […] (a)
(§4) Titration curves from the MTT cell viability assay performed after 4, 7, and 11 (or 10) days of
(§5) Titration curves from the MTT cell viability assay performed after 7 days of treatment of KOPN8 ,
(§6) MOLM13 and MV4;11 cell lines harboring MLL1 translocation (MLL1-r) or K562 cell line (non-
(§7) Representative graphs are shown
(§8) from two independent MTT experiments performed for each cell line. GI50 values correspond to […]

[5] = system: KOPN8 cells; assay: MTT cell viability assay; settings: MTT, 7 days
Description: as §2, §3, §4, §5, §6, §7, §8

[6] = system: MLL fusion target genes in MV4;11 cells; assay: Real time qRT-PCR gene expression; settings: MV4;11, 7 days, 3 uM; normalized to HPRT1, referenced to DMSO
Description: 0.5 × 10^6 – 3 × 10^6 cells from each sample were collected at days 7 or 8 of treatment, centrifuged at 211 xg, and RNA was extracted according to the RNeasy Mini Kit protocol (74106, Qiagen). Extracted RNA was quantified using Nanodrop 2000 UV-Vis spectrophotometer and 0.5–1 µg of total RNA was reverse transcribed into cDNA using High-Capacity cDNA Reverse Transcription Kit (4368814, Applied Biosystems™) according to the manufacturer’s protocol. Real-time PCR was performed using the CFX96 Touch Real-Time PCR Detection System (Bio-Rad). TaqMan Gene Expression Master Mix and TaqMan Gene Expression Assays were purchased from Applied Biosystems. Relative quantification of each gene transcript was carried out using the comparative Ct method as described in the Applied Biosystems User Bulletin no. 2. TaqMan Gene Expression Assays were used: HPRT1: Hs02800695_m1, DLX2: Hs00269993_m1, FLT3: Hs00174690_m1, HOXA9: Hs00365956_m1, MEF2C: Hs00231149_m1, MEIS1: Hs00180020_m1, MNDA: Hs00935905_m1.
Supplementary Figure 10. Effect of AS-nc on gene expression in MLL leukemia cells. (a, b) Quantitative RT-PCR performed in MOLM13 cells (a) or MV4;11 cells (b) after 7 days of treatment with AS-nc. Gene expression was normalized to HPRT1 and referenced to the DMSO treated cells. Representative data from two independent experiments, each performed in triplicates, […]

[7] = system: SET2 cells; assay: MTT cell viability assay
Description: as §2

[8] = system: RS4;11 cells; assay: MTT cell viability assay; settings: 7 days
Description: as §2

[9] = MTT, 7 days, log[compound] -4.92082
[10] = MTT, 7 days, log[compound] -5.22185
[11] = MTT, 7 days, log[compound] -5.52288
[12] = MTT, 7 days, log[compound] -5.82391
[13] = MTT, 7 days, log[compound] -6.12494
[14] = MTT, 7 days, log[compound] -6.42597
[15] = MTT, 7 days, log[compound] -6.727
[16] = leukemia cells without MLL1 translocations

CN1CC(C(=O)NCc2ccc3c(-c4cccc(C(N)=S)c4)cn(C4CCN(S(=O)(=O)C(F)(F)F)CC4)c3c2)C1 [AS-99]
MV4;11 % CD11B+ cells ([1]; 3 uM): 3.77% and 4.48% and 6.27% | MV4;11 % CD11B+ cells ([1]; 6 uM): 35.3% and 55.8% and 53.8% | differentiation in MLL leukemia cells ([1]; MV4;11 and KOPN8): induced differentiation | increased expression of the CD11B differentiation marker ([1]; MV4;11 and KOPN8): up to 50% | KOPN8 % CD11B+ cells ([2]; 1 uM): 5.69% and 3.82% and 3.42% | KOPN8 % CD11B+ cells ([2]; 2 uM): 7.78% and 8.76% and 7.98% | KOPN8 % CD11B+ cells ([2]; 3 uM): 12.9% and 10.3% and 9.53% | KOPN8 % CD11B+ cells ([2]; 4 uM): 24.5% and 25.6% | KOPN8 % Annexin V/PI+ cells ([3]; 1 uM): 4.46% and 5.06% and 4.65% | KOPN8 % Annexin V/PI+ cells ([3]; 2 uM): 6.92% and 8.33% and 6.49% | KOPN8 % Annexin V/PI+ cells ([3]; 3 uM): 6.23% and 7.5% and 8.51% | KOPN8 % Annexin V/PI+ cells ([3]; 4 uM): 31.1% and 33% | GI50 ([4]; Homo sapiens, 168 h, K562 (non MLL1-r), MTT, 7 days): ~10 µM | % activity K562 [4, 9]: 34.51% and 35.23% and 31.55% and 35.55% | % activity K562 [4, 10]: 83.83% and 82.23% and 83.51% and 86.83% | % activity K562 [4, 11]: 95.95% and 103.51% and 103.55% and 93.67% | % activity K562 [4, 12]: 96.63% and 103.59% and 103.23% and 96.55% | % activity K562 [4, 13]: 84.15% and 92.83% and 97.87% and 96.55% | % activity K562 [4, 14]: 86.31% and 85.15% and 89.55% and 92.55% | % activity K562 [4, 15]: 85.67% and 82.35% and 87.23% and 83.91% | effect on growth/proliferation of K562 cells [4, 16]: no or limited effects at 10 µM or higher concentrations | GI50 ([5]; Homo sapiens, KOPN-8, 168 h, KOPN8 (MLL1-r)): 2.9 ± 0.3 µM | % activity KOPN-8 ([5]; log[compound] -4.92082): 5.251% and 4.98% (2×) and 5.115% | % activity KOPN-8 ([5]; log[compound] -5.22185): 1.863% and 1.728% and 2.134% | % activity KOPN-8 ([5]; log[compound] -5.52288): 50.2371% and 54.1667% and 51.0501% and 53.0827% | % activity KOPN-8 ([5]; log[compound] -5.82391): 80.5894% and 71.1043% and 76.5244% and 75.7114% | % activity KOPN-8 ([5]; log[compound] -6.12494): 90.8875% and 88.855% and 90.6165% and 83.977% | % activity KOPN-8 ([5]; log[compound] -6.42597): 97.1206% and 99.8306% and 104.844% and 96.4431% | % activity KOPN-8 ([5]; log[compound] -6.727): 96.0366% and 101.457% and 104.844% and 97.6626% | DLX2 expression [6]: 0.19 and 0.27 and 0.29 | FLT3 expression [6]: 0.7 and 0.8 and 0.73 | HOXA9 expression [6]: 0.46 and 0.64 and 0.75 | MEF2C expression [6]: 0.64 and 0.74 and 0.63 | MEIS1 expression [6]: 0.76 and 0.82 and 1.02 | MNDA expression [6]: 1.48 and 1.84 and 1.74 | GI50 ([7]; Homo sapiens, SET-2, 168 h, SET2 (non MLL1-r), MTT, 7 days): > 12 µM | % activity SET2 [7, 9]: 96.0299% and 95.2049% and 87.6257% and 88.1928% | % activity SET2 [7, 10]: 99.0204% and 97.9376% and 92.5754% and 93.5035% | % activity SET2 [7, 11]: 97.5767% and 104.589% and 99.7938% and 98.0407% | % activity SET2 [7, 12]: 91.6473% and 94.4831% and 88.9662% and 87.9866% | % activity SET2 [7, 13]: 83.7071% and 89.6365% and 81.1807% and 83.8618% | % activity SET2 [7, 14]: 83.5525% and 88.76% and 84.5321% and 85.1508% | % activity SET2 [7, 15]: 86.1304% and 85.9242% and 90.513% and 87.1101% | effect on proliferation of SET2 cells [7, 16]: no or limited effects at 10 µM or higher concentrations | % activity RS4;11 ([8]; log[compound] -4.92082): 2.655% and 2.343% and 2.187% | % activity RS4;11 ([8]; log[compound] -5.22185): 2.03% and 1.718% and 1.874% and 2.655% | % activity RS4;11 ([8]; log[compound] -5.52288): 64.3499% and 67.786% and 71.3784% | % activity RS4;11 ([8]; log[compound] -5.82391): 99.4924% and 89.8087% and 86.9973% and 90.4334% | % activity RS4;11 ([8]; log[compound] -6.12494): 82.4678% and 84.9668% and 84.4982% and 89.3401% | % activity RS4;11 ([8]; log[compound] -6.42597): 93.2448% and 101.679% and 103.397% | GI50 ([8]; Homo sapiens, 168 h, RS4;11 (MLL1-r)): 3.4 ± 0.1 µM
